In general, MIC refers to the least concentration at which growth counts as inhibited. By IC50 is commonly meant the concentration at which inhibition is half-maximal.

One assay deals with Staphylococcus aureus. Put plainly: Antibacterial activity against Staphylococcus aureus assessed as inhibition of bacterial growth by CLSI based microdilution method. Type of assay: functional. In general terms: Dilution methods test growth across graded concentrations, often in twofold steps.
The next assay has as its system Curvularia lunata. Nature of the assay: Antifungal activity against Curvularia lunata assessed as inhibition of fungal growth by CLSI based microdilution method. The assay is classed as functional.
The test system of another assay is Plasmodium falciparum. Put plainly: Antimalarial activity against Plasmodium falciparum K1 assessed as inhibition of parasite growth by microculture radioisotope technique. The assay is classed as functional, organism-based.
The next assay concerns NCI-H187. Put plainly: Cytotoxicity against human NCI-H187 cells assessed as reduction in cell viability by resazurin microplate assay. Type of assay: functional, cell-based. A general note: The colour change of resazurin is a common sign of viable cells or microbes.
For assay [1], the system named is Mycobacterium tuberculosis. Nature of the assay: Antitubercular activity against Mycobacterium tuberculosis H37Ra assessed as inhibition of bacterial growth by green fluorescent protein based method. Type of assay: functional.
The next assay deals with Acinetobacter baumannii. Nature of the assay: Antibacterial activity against Acinetobacter baumannii assessed as inhibition of bacterial growth by CLSI based microdilution method. Type of assay: functional.
Another assay has as its system Alternaria brassicicola. Nature of the assay: Antifungal activity against Alternaria brassicicola assessed as inhibition of fungal growth by CLSI based microdilution method. The assay is classed as functional.
Another assay has as its system MCF7. Put plainly: Cytotoxicity against human MCF7 cells assessed as reduction in cell viability by resazurin microplate assay. The assay is classed as functional, cell-based.
The next assay concerns Vero. Put plainly: Cytotoxicity against African green monkey Vero cells assessed as reduction in cell viability by resazurin microplate assay. The assay is classed as cell-based. As to conditions: Chlorocebus sabaeus.

Values after ≈ are worked out from the molar mass of the structure shown. Bounds are passed on as bounds.

Regarding `CC1=CC(=O)[C@@H]2[C@H]3[C@H](CC[C@]2(O)C1)C(=O)c1c(O)cccc1[C@@H]3O`, the MIC was over 150 µM with Staphylococcus aureus; over 150 µM in the assay with Curvularia lunata; 9.5 µM (≈ 3.12 µg/mL) in [1]; over 150 µM in the assay with Acinetobacter baumannii; over 150 µM with Alternaria brassicicola. The IC50 with Plasmodium falciparum was 28300 nM; with NCI-H187, over 150 µM; in the assay on MCF7, over 150 µM; in the assay on Vero, 147 µM.
As to `CC1=CC(=O)[C@@H]2C3=C(CC[C@]2(O)C1)C(=O)c1c(O)cccc1C3=O`, the MIC with Staphylococcus aureus is over 150 µM; with Curvularia lunata, over 150 µM; in assay [1], 0.6 µM (≈ 0.195 µg/mL); in the assay with Acinetobacter baumannii, over 150 µM; in the assay on Alternaria brassicicola, over 150 µM. For the same molecule, the IC50 came to 2200 nM in the assay with Plasmodium falciparum, 2.2 µM with NCI-H187, 2.2 µM in the assay with MCF7 and 1.8 µM in the assay on Vero.
In the case of `CC1=C[C@@H](O)[C@H]2[C@](O)(CC[C@]3(O)C(=O)c4c(O)cccc4[C@H](O)[C@@]23O)C1`, the MIC was over 138 µM in the assay on Staphylococcus aureus; over 138 µM in the assay with Curvularia lunata; 138 µM (≈ 50 µg/mL) in assay [1]; over 138 µM in the assay on Acinetobacter baumannii; over 138 µM in the assay with Alternaria brassicicola. In addition, the IC50 with Plasmodium falciparum was over 28000 nM; in the assay with NCI-H187, over 138 µM; in the assay on MCF7, over 138 µM; in the assay on Vero, over 138 µM.
Take `Cc1ccc2c3c(ccc2c1)C(=O)c1c(O)cccc1C3=O`: the MIC with Staphylococcus aureus is over 150 µM; in the assay with Curvularia lunata, over 150 µM; in assay [1], 10.9 µM (≈ 3.14 µg/mL); in the assay with Acinetobacter baumannii, over 150 µM; in the assay with Alternaria brassicicola, over 150 µM. Further, the IC50 is over 35000 nM in the assay with Plasmodium falciparum, 83.3 µM with NCI-H187, 55.3 µM in the assay with MCF7 and 35.4 µM in the assay with Vero.
As for `CC1=C[C@@H]2O[C@]34CC[C@](O)(C1)[C@H]2[C@]3(O)[C@@H](O)c1cccc(O)c1C4=O`, the MIC was over 145 µM with Staphylococcus aureus; over 145 µM in the assay with Curvularia lunata; 145 µM (≈ 50 µg/mL) in assay [1]; over 145 µM in the assay with Acinetobacter baumannii; over 145 µM in the assay with Alternaria brassicicola. The IC50 in the assay on Plasmodium falciparum was over 28000 nM; in the assay on NCI-H187, over 145 µM; in the assay on MCF7 it was over 145 µM; with Vero it was over 145 µM.
For `Cc1cc(O)c2c(c1)CCC1=C2C(=O)c2cccc(O)c2C1=O`, the MIC was over 150 µM in the assay with Staphylococcus aureus; over 150 µM in the assay on Curvularia lunata; 0.3 µM (≈ 0.0919 µg/mL) in assay [1]; over 150 µM in the assay with Acinetobacter baumannii; over 150 µM in the assay with Alternaria brassicicola. Also, the IC50 in the assay on Plasmodium falciparum came out at 2600 nM; with NCI-H187, 3 µM; in the assay on MCF7, 1.1 µM; in the assay with Vero it was 1.4 µM.
For the molecule `CC1=C[C@@H](O)[C@@H]2C3=C(CC[C@]2(O)C1)C(=O)c1c(O)cccc1C3=O`, the MIC in the assay with Staphylococcus aureus is over 150 µM; in the assay with Curvularia lunata, over 150 µM; in [1], 2.4 µM (≈ 0.783 µg/mL); in the assay with Acinetobacter baumannii, over 150 µM; with Alternaria brassicicola, over 150 µM. Besides, the half-maximal inhibitory concentration (IC50) in the assay with Plasmodium falciparum was found to be 2500 nM; in the assay on NCI-H187 it was 2.3 µM; with MCF7, 3.4 µM; with Vero, 1.1 µM.
`C[C@@H]1[C@H](O)[C@@H](C)/C=C/C=C/C=C/C=C/C=C/C=C/C=C/[C@H](O[C@@H]2O[C@H](C)[C@@H](O)[C@H](N)[C@@H]2O)C[C@@H]2O[C@](O)(C[C@@H](O)C[C@@H](O)[C@H](O)CC[C@@H](O)C[C@@H](O)CC(=O)O[C@H]1C)C[C@H](O)[C@H]2C(=O)O` [AMPHOTERICIN B]: the MIC was 1.7 µM (≈ 1.57 µg/mL) in the assay on Curvularia lunata and 0.8 µM (≈ 0.739 µg/mL) in the assay with Alternaria brassicicola.
On to `C[C@H]1[C@@H](O)O[C@@H]2O[C@@]3(C)CC[C@H]4[C@H](C)CC[C@@H]1[C@@]24OO3` [ARTENIMOL], for which the IC50 in the assay on Plasmodium falciparum came to 2 nM.
As for `Cc1c2ccncc2c(C)c2c1[nH]c1ccccc12` [ELLIPTECINE], the IC50 with NCI-H187 was determined as 13.7 µM; in the assay with Vero it was 4.5 µM.
Take `CC[C@H]1OC(=O)[C@H](C)[C@@H](O[C@H]2C[C@@](C)(OC)[C@@H](O)[C@H](C)O2)[C@H](C)[C@@H](O[C@@H]2O[C@H](C)C[C@H](N(C)C)[C@H]2O)[C@](C)(O)C[C@@H](C)C(=O)[C@H](C)[C@@H](O)[C@]1(C)O` [ERYTHROMYCIN]: the MIC with Acinetobacter baumannii was 8.5 µM (≈ 6.24 µg/mL).
In the case of `NNC(=O)c1ccncc1` [ISONIAZID], in assay [1], the MIC amounted to 0.5 µM (≈ 0.0686 µg/mL).
For `CO[C@H]1/C=C/O[C@@]2(C)Oc3c(C)c(O)c4c(O)c(c(/C=N/N5CCN(C)CC5)c(O)c4c3C2=O)NC(=O)/C(C)=C\C=C\[C@H](C)[C@H](O)[C@@H](C)[C@@H](O)[C@@H](C)[C@H](OC(C)=O)[C@@H]1C` [RIFAMPIN], the MIC in the assay with Staphylococcus aureus was 1.9 µM (≈ 1.56 µg/mL); in [1] it was 0.006 µM (≈ 0.00494 µg/mL); with Acinetobacter baumannii, 3.8 µM (≈ 3.13 µg/mL).
For `Cc1cc(O)c2c3c(ccc2c1)C(=O)c1c(O)cccc1C3=O` [TETRANGULOL], the MIC is over 150 µM in the assay with Staphylococcus aureus; over 150 µM with Curvularia lunata; 2.6 µM (≈ 0.791 µg/mL) in assay [1]; over 150 µM with Acinetobacter baumannii; over 150 µM with Alternaria brassicicola. For the same molecule, the IC50 is 5900 nM in the assay on Plasmodium falciparum, 17.1 µM in the assay on NCI-H187, 18 µM with MCF7 and 4.4 µM in the assay with Vero.
Consider `CN[C@H](CC(C)C)C(=O)N[C@H]1C(=O)N[C@@H](CC(N)=O)C(=O)N[C@H]2C(=O)N[C@H]3C(=O)N[C@H](C(=O)N[C@H](C(=O)O)c4cc(O)cc(O)c4-c4cc3ccc4O)[C@H](O)c3ccc(c(Cl)c3)Oc3cc2cc(c3O[C@@H]2O[C@H](CO)[C@@H](O)[C@H](O)[C@H]2O[C@H]2C[C@](C)(N)[C@H](O)[C@H](C)O2)Oc2ccc(cc2Cl)[C@H]1O` [VANCOMYCIN], for which, in the assay with Staphylococcus aureus, the MIC was 0.3 µM (≈ 0.435 µg/mL).

The values above are taken from ChEMBL document CHEMBL4828775, “Antimicrobial and Cytotoxic Angucyclic Quinones from Actinomadura miaoliensis” (J Nat Prod, 2021).
